Measurements published in patent US20220273659A1, “HETEROCYCLIC COMPOUNDS AS KINASE INHIBITORS” (NUVATION BIO INC., priority 2019, published 2022).

Legend:
CDK4 = molecular target: T1, CDK4 (Homo sapiens, UniProt P11802); assay: In vitro kinase inhibition IC50, luminescence (ADP Glo), retinoblastoma substrate; format: biochemical; settings: read-out: CDK4/D1 IC50
T1 construct: purchased Invitrogen PR8064A
Protocol: (§1) IC50 values of compounds against CDK4 and CDK6 were determined by luminescence using retinoblastoma as substrate. Kinase assays were performed in kinase buffer (#PV6135, Invitrogen Life Technologies, Grand Island, N.Y.) where total reaction volume was […] in 96-well half area white plates (#3693, Costar). One microliter of 25×test compounds at specific concentrations (e.g., final concentration range: 0.1 nM-200 nM) was mixed with 10 μL of 2.5×kinase (5 nM, CDK4 #PR8064A and CDK6 #PR8422B, Invitrogen) solution and 14 μL of 4× mixed solution with retinoblastoma (1 μM, #12-439, EMD Millipore, Hayward, Calif.) and ATP (25 μM, #V7038, Promega, Madison, Wis.). The plates were covered and incubated for 2H at room temperature. At the end of incubation, 25 μL of stop solution—ADP Glo reagent (#V7002, Promega) was added. After incubation for 45 min at room temperature, 50 μL of detection reagent (##V7002, Promega) was added. Readings were taken at 15 min and 45 min incubation after detection reagent was added in a Synergy Neo Plate reader (BioTek, Winooski, Vt.) at single excitation of 340 nm and Dual emission at 495 nm and 520 nm respectively. The following equations were used in the CDK4 and CDK6 assay data analysis. Percent inhibition (100-% activity) was fitted to the “four-parameter logistic model” in XLfit for determination of IC50 values.
(§2) Percent conversion of enzyme=100−{(RLUNo Drug−No enzyme*100)/RLUNo drug+Enzyme} Equation 1:
(§3) Percent conversion at each data point=100−{(RLUAverage(Drug+enzyme)*100)!RLUNo drug+Enzyme} Equation 2:
(§4) Percent Inhibition=100*(% Conversioneach data point/% ConversionEnzyme) Equation 3: […]

CDK6 = molecular target: T2, CDK6 (Homo sapiens, UniProt Q00534); assay: as above; format: biochemical; settings: read-out: CDK6/D1 IC50
T2 construct: purchased Invitrogen PR8422B
T2 sequence (Q00534 whole entry): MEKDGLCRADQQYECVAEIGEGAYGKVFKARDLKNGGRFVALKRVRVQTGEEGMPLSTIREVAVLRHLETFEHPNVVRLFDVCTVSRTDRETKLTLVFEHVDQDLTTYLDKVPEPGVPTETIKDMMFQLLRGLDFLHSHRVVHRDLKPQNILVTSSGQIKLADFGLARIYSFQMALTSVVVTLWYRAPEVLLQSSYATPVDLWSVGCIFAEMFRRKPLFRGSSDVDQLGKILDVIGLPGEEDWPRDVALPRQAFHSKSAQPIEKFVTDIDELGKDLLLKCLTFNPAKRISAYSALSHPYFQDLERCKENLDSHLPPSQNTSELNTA
T2 sequence (P24385 whole entry partner): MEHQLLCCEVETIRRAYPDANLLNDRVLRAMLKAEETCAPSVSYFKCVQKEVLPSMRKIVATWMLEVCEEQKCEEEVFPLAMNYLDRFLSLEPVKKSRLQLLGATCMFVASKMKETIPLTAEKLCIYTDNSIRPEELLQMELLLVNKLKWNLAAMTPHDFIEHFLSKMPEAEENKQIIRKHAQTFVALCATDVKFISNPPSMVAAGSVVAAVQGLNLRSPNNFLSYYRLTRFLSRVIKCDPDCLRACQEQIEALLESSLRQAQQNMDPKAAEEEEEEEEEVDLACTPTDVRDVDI
Protocol: as §1, §2, §3, §4

[1] = system: DU4475 breast carcinoma cells; assay: Cancer cell proliferation assay, single agent (cell viability); format: cell-based; settings: Homo sapiens, DU-4475; Table 4; Rb negative; treatment 144 Hr with medium change at 72 Hr; Cell Titer-Glo or resazurin
Protocol: (§5) The effects of test compounds were studied in three breast cancer cell lines of different subtype. The cancer cells (Table 3) were harvested during the logarithmic growth period and counted. Cell concentrations were adjusted to the appropriate number with respective medium and 90 μL cell suspensions were added to 96-well plates. After cells were seeded, the plates were shaken gently to distribute cells evenly and incubated at 37° C., 5% CO2 on day 1.
(§6) Cells were treated with test compounds at 7 to 9 concentrations within a desired concentration range (e.g. 1.1 nM-10 μM) on day 2 by series diluting the test compound stock solution (10 mM in DMSO) with culture medium. Treatment duration was 24 Hr for BT-549 cells and 144 Hr (with a medium change at 72 Hr) for MCF-7 and DU4475 cells. Cell viability was assessed by Cell Titer-Glo® as recommended by Promega (Cat. No.: G7572), or by resazurin assay (Sigma Aldrich, Cat. No.: R7017) post treatment.
(§7) Cell viability data were plotted using GraphPad Prism (GraphPad Software, Inc., San Diego, Calif.). In addition, a nonlinear regression model with a sigmoidal dose response and variable slope within GraphPad Prism was used to calculate the IC50 value of individual test compounds.

[2] = system: MCF-7 breast adenocarcinoma cells; assay: as above; format: cell-based; settings: Homo sapiens, MCF7, Table 4; Rb positive; treatment 144 Hr with medium change at 72 Hr; Cell Titer-Glo or resazurin
Protocol: as §5, §6, §7

T1 sequence (P11802 whole entry): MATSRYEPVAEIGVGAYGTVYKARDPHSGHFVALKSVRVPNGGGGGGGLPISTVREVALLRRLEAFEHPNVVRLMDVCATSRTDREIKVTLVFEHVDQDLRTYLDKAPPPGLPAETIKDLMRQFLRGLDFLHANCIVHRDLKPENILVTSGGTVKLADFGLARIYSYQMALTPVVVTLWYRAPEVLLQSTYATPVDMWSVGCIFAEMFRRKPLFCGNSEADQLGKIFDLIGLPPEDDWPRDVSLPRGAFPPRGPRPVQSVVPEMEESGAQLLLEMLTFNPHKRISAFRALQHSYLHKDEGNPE
T1 sequence (P24385 whole entry partner): as the sequence (P24385 whole entry partner) above

Row | IC50 (CDK4) [nM] | IC50 (CDK6) [nM] | IC50 [1] [nM] | IC50 [2] [nM] | Structure (SMILES)
1 | 14 | 4 | 1260 | 594 | CN(C)CCN1CCc2ccc(Nc3ncc4cc(C#N)c(=O)n(C5CCCC5)c4n3)cc2C1 [Compound No. 62, 8-cyclopentyl-2-((2-(2-(dimethylamino)ethyl)-1,2,3,4-tetrahydroisoquinolin-7-yl)amino)-7-oxo-7,8-dihydropyrido[2,3-d]pyrimidine-6-carbonitrile]
2 | > 200 | 32 | 4740 | 3590 | CN(C)CCN1CCc2nc(Nc3ncc4cc(C#N)c(=O)n(C5CCCC5)c4n3)ccc2C1 [Compound No. 64, 8-cyclopentyl-2-((6-(2-(dimethylamino)ethyl)-5,6,7,8-tetrahydro-1,6-naphthyridin-2-yl)amino)-7-oxo-7,8-dihydropyrido[2,3-d]pyrimidine-6-carbonitrile]
3 | > 140 | > 200 | 4450 | 1640 | CN(C)CCN1CCC(Nc2ncc3cc(C#N)c(=O)n(C4CCCC4)c3n2)CC1 [Compound No. 67, 8-cyclopentyl-2-((1-(2-(dimethylamino)ethyl)piperidin-4-yl)amino)-7-oxo-7,8-dihydropyrido[2,3-d]pyrimidine-6-carbonitrile]
4 | > 200 | > 200 | > 10000 | > 10000 | CN(C)CCN1CCc2ccc(Nc3ncc4cc(C#N)c(=O)n(C5CCCC5)c4n3)cc2C1=O [Compound No. 68, 8-cyclopentyl-2-((2-(2-(dimethylamino)ethyl)-1-oxo-1,2,3,4-tetrahydroisoquinolin-7-yl)amino)-7-oxo-7,8-dihydropyrido[2,3-d]pyrimidine-6-carbonitrile]
5 | – | 5 | 1650 | 793 | CC(=O)N1CCc2cc(Nc3ncc4cc(C#N)c(=O)n(C5CCCC5)c4n3)ccc2C1 [Compound No. 71, 2-((2-acetyl-1,2,3,4-tetrahydroisoquinolin-6-yl)amino)-8-cyclopentyl-7-oxo-7,8-dihydropyrido[2,3-d]pyrimidine-6-carbonitrile]
6 | – | 1 | 985 | 330 | CN(C)CCCN1CCc2cc(Nc3ncc4cc(C#N)c(=O)n(C5CCCC5)c4n3)ccc2C1 [Compound No. 72, 8-cyclopentyl-2-((2-(3-(dimethylamino)propyl)-1,2,3,4-tetrahydroisoquinolin-6-yl)amino)-7-oxo-7,8-dihydropyrido[2,3-d]pyrimidine-6-carbonitrile]
7 | 15 | 28 | > 8430 | 1590 | CN(C)CCN1CCC(n2ccc(Nc3ncc4cc(C#N)c(=O)n(C5CCCC5)c4n3)cc2=O)CC1 [Compound No. 73, 8-cyclopentyl-2-((1-(1-(2-(dimethylamino)ethyl)piperidin-4-yl)-2-oxo-1,2-dihydropyridin-4-yl)amino)-7-oxo-7,8-dihydropyrido[2,3-d]pyrimidine-6-carbonitrile]
8 | 7 | 5.5 | 1050 | 598 | COCCN1CCc2cc(Nc3ncc4cc(C#N)c(=O)n(C5CCCC5)c4n3)ccc2C1 [Compound No. 75, 8-cyclopentyl-2-((2-(2-methoxyethyl)-1,2,3,4-tetrahydroisoquinolin-6-yl)amino)-7-oxo-7,8-dihydropyrido[2,3-d]pyrimidine-6-carbonitrile]
9 | 9.5 | 6 | 660 | 793 | CN(C)CCN1Cc2cc(Nc3ncc4cc(C#N)c(=O)n(C5CCCC5)c4n3)ccc2C(C)(C)C1 [Compound No. 76, 8-cyclopentyl-2-((2-(2-(dimethylamino)ethyl)-4,4-dimethyl-1,2,3,4-tetrahydroisoquinolin-7-yl)amino)-7-oxo-7,8-dihydropyrido[2,3-d]pyrimidine-6-carbonitrile]
10 | 132 | 43 | 4560 | 452 | N#Cc1cc2cnc(Nc3cnc4c(c3)CNCC4)nc2n(C2CCCC2)c1=O [Compound No. 77, 8-cyclopentyl-7-oxo-2-((5,6,7,8-tetrahydro-1,6-naphthyridin-3-yl)amino)-7,8-dihydropyrido[2,3-d]pyrimidine-6-carbonitrile]
11 | 33 | 15 | 1670 | 751 | N#Cc1cc2cnc(Nc3ccc4c(c3)CNCCC4)nc2n(C2CCCC2)c1=O [Compound No. 78, 8-cyclopentyl-7-oxo-2-((2,3,4,5-tetrahydro-1H-benzo[c]azepin-8-yl)amino)-7,8-dihydropyrido[2,3-d]pyrimidine-6-carbonitrile]
12 | > 147 | 38 | 4060 | 1840 | N#Cc1cc2cnc(Nc3ccc4c(c3)C(=O)NCCC4)nc2n(C2CCCC2)c1=O [Compound No. 79, 8-cyclopentyl-7-oxo-2-((1-oxo-2,3,4,5-tetrahydro-1H-benzo[c]azepin-8-yl)amino)-7,8-dihydropyrido [2,3-d]pyrimidine-6-carbonitrile]
13 | > 200 | 137 | 585 | 641 | CC(C)Cn1c(=O)c(C#N)cc2cnc(Nc3ccc4c(c3)CCNC4)nc21 [Compound No. 81, 8-isobutyl-7-oxo-2-((1,2,3,4-tetrahydroisoquinolin-6-yl)amino)-7,8-dihydropyrido[2,3-d]pyrimidine-6-carbonitrile]
14 | > 200 | 131 | 250 | 305 | N#Cc1cc2cnc(Nc3ccc4c(c3)CCCNC4=O)nc2n(C2CCCC2)c1=O [Compound No. 82, 8-cyclopentyl-7-oxo-2-((1-oxo-2,3,4,5-tetrahydro-1H-benzo[c]azepin-7-yl)amino)-7,8-dihydropyrido[2,3-d]pyrimidine-6-carbonitrile]
15 | 84 | 24 | 820 | 1060 | N#Cc1cc2cnc(Nc3ccc4c(c3)CCCC(=O)N4)nc2n(C2CCCC2)c1=O [Compound No. 83, 8-cyclopentyl-7-oxo-2-((2-oxo-2,3,4,5-tetrahydro-1H-benzo[b]azepin-7-yl)amino)-7,8-dihydropyrido[2,3-d]pyrimidine-6-carbonitrile]
16 | > 200 | 116 | 2520 | 2000 | N#Cc1cc2cnc(Nc3cc4c(cc3F)CNCC4)nc2n(C2CCCC2)c1=O [Compound No. 84, 8-cyclopentyl-2-((7-fluoro-1,2,3,4-tetrahydroisoquinolin-6-yl)amino)-7-oxo-7,8-dihydropyrido[2,3-d]pyrimidine-6-carbonitrile]
17 | > 200 | > 190 | 725 | 723 | N#Cc1cc2cnc(Nc3ccc4c(c3)CCNC4)nc2n(CC2CC2)c1=O [Compound No. 85, 8-(cyclopropylmethyl)-7-oxo-2-((1,2,3,4-tetrahydroisoquinolin-6-yl)amino)-7,8-dihydropyrido[2,3-d]pyrimidine-6-carbonitrile]
18 | 11 | 9 | > 5260 | – | CC1(C)CCCC1n1c(=O)c(C#N)cc2cnc(NC3CCN(S(C)(=O)=O)CC3)nc21 (stereo not drawn) [Compound No. 388, 8-(2,2-dimethylcyclopentyl)-2-(1-(methylsulfonyl)piperidin-4-ylamino)-7-oxo-7,8-dihydropyrido[2,3-d]pyrimidine-6-carbonitrile]
19 | 7.5 | 11 | 4220 | – | Cc1c(C#N)c(=O)n(C2CCCC2)c2nc(NC3CCN(S(C)(=O)=O)CC3)ncc12 [Compound No. 389, 8-cyclopentyl-5-methyl-2-(1-(methylsulfonyl)piperidin-4-ylamino)-7-oxo-7,8-dihydropyrido[2,3-d]pyrimidine-6-carbonitrile]
